pEC50: −log10 of the molar value.
molecular target: Beta-2 adrenergic receptor (Homo sapiens) (UniProt P07550); test: ADRB2 activation measured by internalization – cell-based, FAP fluorogen, flow cytometry, powder set 5, dose response (AID 651912); settings: AM2.2-beta2AR cells, 90 min
Sequence (P07550 whole entry, looked up): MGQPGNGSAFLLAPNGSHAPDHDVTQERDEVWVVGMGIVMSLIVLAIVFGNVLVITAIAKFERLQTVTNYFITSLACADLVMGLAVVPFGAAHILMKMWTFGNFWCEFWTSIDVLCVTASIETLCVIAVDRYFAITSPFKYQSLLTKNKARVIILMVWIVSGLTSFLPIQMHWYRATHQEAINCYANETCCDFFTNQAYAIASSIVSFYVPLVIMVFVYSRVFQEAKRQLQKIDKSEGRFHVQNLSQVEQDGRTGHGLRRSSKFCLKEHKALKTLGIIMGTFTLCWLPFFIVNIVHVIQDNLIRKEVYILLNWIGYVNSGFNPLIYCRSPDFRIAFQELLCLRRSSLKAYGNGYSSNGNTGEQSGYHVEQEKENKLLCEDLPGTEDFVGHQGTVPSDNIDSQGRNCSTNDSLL

pEC50 | Compound
6.87 | CC1CCCCN1S(=O)(=O)c1ccc(NC(=O)c2cccnc2)cc1 (configuration not stated)
6.47 | CN(CC(=O)N1CCN(c2ccc(F)cc2)CC1)S(=O)(=O)c1ccc(Br)cc1
5.40 | Cc1cccc(C(=O)Nc2ccc(S(=O)(=O)N3CCCCC3C)cc2)c1 (configuration not stated)
6.66 | O=C(C1CCCN1S(=O)(=O)c1ccc(Cl)cc1)N1CCN(c2ccccn2)CC1 (configuration not stated)
8.32 | CCC(=O)Nc1ccc(S(=O)(=O)N2CCCCC2CC)cc1 (configuration not stated)
6.88 | CCC1CCCCN1S(=O)(=O)c1ccc(NC(C)=O)cc1 (configuration not stated)
7.10 | CC(=O)Nc1ccc(S(=O)(=O)N2CCCCC2C)cc1 (configuration not stated)
